From patent US20090196826A1, “COMPOSITIONS AND METHODS OF MAKING NON-SPHERICAL MICRO- AND NANO-PARTICLES” (BOARD OF REGENTS, THE UNIVERSITY OF TEXAS SYSTEM, priority 2007, published 2009) come the findings set out here.

The assay concerns subcutaneous A549 lung tumor xenograft. The assay can be described thus: antitumor efficacy in subcutaneous A549 lung tumor xenograft (caliper). Type of assay: in vivo, mice. Conditions: equivalent DOX dose 4 mg/kg i.v. at day 0, 2, 5 and 10. As for the experimental part:
In a separate study, we have systematically investigated the antitumor efficacy of cRGD-encoded micelles in a subcutaneous A549 lung tumor xenograft study. Tumor size was measured by a caliper and normalized to that at day 0 before treatment. In this study, animals were treated with an equivalent DOX dose at 4 mg/kg for free drug, 0 and 16% cRGD-DOX-SPIO micelles, and coadministration of 16% cRGD-DOX-SPIO micelles with free cRGD peptides ([…]). Free drug or drug-encapsulated micelles were injected i.v. (bolus) into the tail vein at day 0, 2, 5 and 10. The control group was injected with phosphate buffer saline (PBS). Three animals were used for each sample group.

As to `COc1cccc2c1C(=O)c1c(O)c3c(c(O)c1C2=O)C[C@@](O)(C(=O)CO)C[C@@H]3O[C@H]1C[C@H](N)[C@H](O)[C@H](C)O1` [free DOX, doxorubicin], the “tumor size change” value is “did not change dramatically”.
